Assay results from ChEMBL document CHEMBL1124402, “Potent angiotensin II antagonists with non-beta-branched amino acids in position 5” (1989).
Numbered stars: 1 amine (or outer) side, 2 acyl side, 3 side chain; on linkers, the order of the positions; unused ones are H or OH. Square brackets hold non-standard residues; d marks the D form. Peptide text beside a SMILES is read from it. X1 = CC(c1ccccc1)[C@H](N[*:1])C(=O)[*:2]; Thz(5,5-Me2) = CC1(C)SCN[C@@H]1C(=O)O; dThz(5,5-Me2) = CC1(C)SCN[C@H]1C(=O)O; Gly(cPent) = N[C@H](C(=O)O)C1CCCC1; hPhe = N[C@@H](CCc1ccccc1)C(=O)O; Chg = N[C@H](C(=O)O)C1CCCCC1; Pen = CC(C)(S)[C@H](N)C(=O)O; Nle = CCCC[C@H](N)C(=O)O; Abu = CC[C@H](N)C(=O)O; Sar = CNCC(=O)O

How the values were obtained:
Rattus norvegicus [1] = test: In vivo angiotensin II like activity determined in rat blood pressure assay measured as increase in BP by 1 ug iv of compound; assay type: functional
Rattus norvegicus [2] = test: In vivo antagonistic activity was measured in the rat blood pressure assay; assay type: functional
Oryctolagus cuniculus [3] = organism: Oryctolagus cuniculus; test: In vitro antagonist activity was measured in rabbit aorta assay as pA2
Rattus norvegicus [4] = test: (§1) In vivo angiotensin II like activity expressed in rat blood pressure assay measured as increase in BP by 1 ug bolus intravenous injection of compound; assay type: functional
[5] = target: Type-1 angiotensin II receptor (Oryctolagus cuniculus) (UniProt P34976); test: In vitro antagonist activity of compound towards angiotensin II like was measured in rabbit aorta assay; details: target entry is the homologue from another species
Oryctolagus cuniculus [6] = organism: Oryctolagus cuniculus; test: In vitro antagonist activity of compound towards angiotensin II like was measured in rabbit aorta assay; assay type: functional
[7] = target: T1, Type-2 angiotensin II receptor (Rattus norvegicus) (UniProt P35351); test: as §1; assay type: functional, organism-based
T1 sequence (whole entry): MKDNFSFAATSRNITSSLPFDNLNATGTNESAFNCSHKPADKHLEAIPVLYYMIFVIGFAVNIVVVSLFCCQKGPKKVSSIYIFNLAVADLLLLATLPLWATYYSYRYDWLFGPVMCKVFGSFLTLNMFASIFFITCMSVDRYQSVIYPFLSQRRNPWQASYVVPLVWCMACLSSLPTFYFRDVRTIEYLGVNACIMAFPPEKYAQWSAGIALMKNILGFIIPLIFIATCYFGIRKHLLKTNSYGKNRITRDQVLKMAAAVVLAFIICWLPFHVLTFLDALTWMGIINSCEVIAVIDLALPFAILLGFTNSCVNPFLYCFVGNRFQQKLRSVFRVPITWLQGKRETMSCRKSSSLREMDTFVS

Rattus norvegicus [8] = test: In vivo inhibitory activity against Residual angiotensin II in the rat blood pressure; assay type: functional
Rattus norvegicus [9] = test: In vivo residual angiotensin II like activity in an rat blood pressure assay; assay type: functional; design: concentration or dose not given beside the values
[10] = target: Type-1 angiotensin II receptor (Oryctolagus cuniculus) (UniProt P34976); test: In vitro antagonist activity of compound towards angiotensin II like was measured in a rabbit aorta assay; details: target entry is the homologue from another species
Rattus norvegicus [11] = test: In vivo residual angiotensin II like activity in rat blood pressure assay; assay type: functional

Type-1 angiotensin II receptor (Oryctolagus cuniculus), sequence (P34976 whole entry, looked up): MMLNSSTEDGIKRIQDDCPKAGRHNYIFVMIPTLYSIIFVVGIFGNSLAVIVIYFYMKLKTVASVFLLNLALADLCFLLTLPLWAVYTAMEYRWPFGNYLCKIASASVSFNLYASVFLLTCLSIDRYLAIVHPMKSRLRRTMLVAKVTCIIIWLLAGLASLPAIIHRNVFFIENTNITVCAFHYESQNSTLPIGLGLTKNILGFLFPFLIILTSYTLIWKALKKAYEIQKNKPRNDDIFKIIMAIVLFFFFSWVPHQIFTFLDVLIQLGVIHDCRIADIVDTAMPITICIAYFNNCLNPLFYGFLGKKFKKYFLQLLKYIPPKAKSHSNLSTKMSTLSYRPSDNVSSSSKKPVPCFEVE

Compound | BP (Rattus norvegicus [1]) [mmHg] | ID50 (Rattus norvegicus [2]) [ng min-1 rat-1] | Activity (Rattus norvegicus [9]) [%] | further results
CC[C@H](C)[C@H](NC(=O)[C@@H]1CCCN1C(=O)[C@H](Cc1c[nH]cn1)NC(=O)[C@H](Cc1c[nH]c2ccccc12)NC(=O)[C@H](Cc1ccc(O)cc1)NC(=O)[C@@H](NC(=O)[C@H](CCCN=C(N)N)NC(=O)CNC)C(C)C)C(=O)O | 7.5 | 50 |  | pA2 (Oryctolagus cuniculus [3]): 7.25
CC[C@H](C)[C@H](NC(=O)[C@@H]1CCCN1C(=O)[C@H](Cc1c[nH]cn1)NC(=O)[C@H](Cc1c[nH]cn1)NC(=O)[C@H](Cc1ccc(O)cc1)NC(=O)[C@@H](NC(=O)[C@H](CCCN=C(N)N)NC(=O)CNC)C(C)C)C(=O)O | 10 | 5 |  | pA2 (Oryctolagus cuniculus [3]): 9
CC[C@H](C)[C@H](NC(=O)[C@@H]1CCCN1C(=O)[C@H](Cc1c[nH]cn1)NC(=O)[C@H](Cc1ccc(O)cc1)NC(=O)[C@H](Cc1ccc(O)cc1)NC(=O)[C@@H](NC(=O)[C@H](CCCN=C(N)N)NC(=O)CNC)C(C)C)C(=O)O | 2.5 | 50 |  | pA2 (Oryctolagus cuniculus [3]): 9.6
CC[C@H](C)[C@H](NC(=O)[C@@H]1CCCN1C(=O)[C@H](Cc1c[nH]cn1)NC(=O)[C@H](NC(=O)[C@H](Cc1ccc(O)cc1)NC(=O)[C@@H](NC(=O)[C@H](CCCN=C(N)N)NC(=O)CNC)C(C)C)c1ccccc1)C(=O)O | 8.5 | 5.5 |  | pA2 (Oryctolagus cuniculus [3]): 9
CC[C@H](C)[C@H](NC(=O)[C@@H]1CCCN1C(=O)[C@H](Cc1c[nH]cn1)NC(=O)[C@H](CCC(=O)O)NC(=O)[C@H](Cc1ccc(O)cc1)NC(=O)[C@@H](NC(=O)[C@H](CCCN=C(N)N)NC(=O)CNC)C(C)C)C(=O)O |  | 100 |  | BP (Rattus norvegicus [4]): 2 mmHg; pA2 [5]: 9
CC[C@H](C)[C@H](NC(=O)[C@@H]1CCCN1C(=O)[C@H](Cc1c[nH]cn1)NC(=O)[C@@H](NC(=O)[C@H](Cc1ccc(O)cc1)NC(=O)[C@@H](NC(=O)[C@H](CCCN=C(N)N)NC(=O)CNC)C(C)C)[C@@H](C)CC)C(=O)O |  |  |  | pA2 (Oryctolagus cuniculus [6]): 9.1; BP [7]: 10.2 mmHg; ID50 (Rattus norvegicus [8]): 10 ng min-1 rat-1
CO[C@H](C)[C@H](NC(=O)[C@H](Cc1ccc(O)cc1)NC(=O)[C@@H](NC(=O)[C@H](CCCN=C(N)N)NC(=O)[C@@H](N)CC(N)=O)C(C)C)C(=O)N[C@@H](Cc1c[nH]cn1)C(=O)N1CCC[C@H]1C(=O)N[C@@H](Cc1ccccc1)C(=O)O (H-NRVYT(Me)HPF-OH) |  |  | 118 | 
CC[C@H](NC(=O)[C@H](Cc1ccc(O)cc1)NC(=O)[C@@H](NC(=O)[C@H](CCCN=C(N)N)NC(=O)[C@@H](N)CC(N)=O)C(C)C)C(=O)N[C@@H](Cc1c[nH]cn1)C(=O)N1CCC[C@H]1C(=O)N[C@@H](Cc1ccccc1)C(=O)O (H-NRVY[Abu]HPF-OH) |  |  | 16 | 
CC(C)[C@H](NC(=O)[C@H](CCCN=C(N)N)NC(=O)[C@@H](N)CC(N)=O)C(=O)N[C@@H](Cc1ccc(O)cc1)C(=O)N[C@H](C(=O)N[C@@H](Cc1c[nH]cn1)C(=O)N1CCC[C@H]1C(=O)N[C@@H](Cc1ccccc1)C(=O)O)C1CCCCC1 (H-NRVY[Chg]HPF-OH) |  |  | 114 | 
CC(C)[C@H](NC(=O)[C@H](CCCN=C(N)N)NC(=O)[C@@H](N)CC(N)=O)C(=O)N[C@@H](Cc1ccc(O)cc1)C(=O)N[C@H](C(=O)N[C@@H](Cc1c[nH]cn1)C(=O)N1CCC[C@H]1C(=O)N[C@@H](Cc1ccccc1)C(=O)O)C1CCCC1 (H-NRVY[Gly(cPent)]HPF-OH) |  |  | 89 | 
CCCC[C@H](NC(=O)[C@H](Cc1ccc(O)cc1)NC(=O)[C@@H](NC(=O)[C@H](CCCN=C(N)N)NC(=O)[C@@H](N)CC(N)=O)C(C)C)C(=O)N[C@@H](Cc1c[nH]cn1)C(=O)N1CCC[C@H]1C(=O)N[C@@H](Cc1ccccc1)C(=O)O (H-NRVY[Nle]HPF-OH) |  |  | 21 | 
CC[C@H](C)[C@H](NC(=O)[C@@H]1CCCN1C(=O)[C@H](Cc1c[nH]cn1)NC(=O)[C@H](C)NC(=O)[C@H](Cc1ccc(O)cc1)NC(=O)[C@@H](NC(=O)[C@H](CCCN=C(N)N)NC(=O)CNC)C(C)C)C(=O)O (H-[Sar]RVYAHPI-OH) |  | 50 |  | BP (Rattus norvegicus [4]): 5 mmHg; pA2 [10]: 7.5
CC[C@H](C)[C@H](NC(=O)[C@@H]1CCCN1C(=O)[C@H](Cc1c[nH]cn1)NC(=O)[C@H](Cc1ccccc1)NC(=O)[C@H](Cc1ccc(O)cc1)NC(=O)[C@@H](NC(=O)[C@H](CCCN=C(N)N)NC(=O)CNC)C(C)C)C(=O)O (H-[Sar]RVYFHPI-OH) | 7.5 | 100 |  | pA2 (Oryctolagus cuniculus [3]): 9.15
CC[C@H](C)[C@H](NC(=O)[C@@H]1CCCN1C(=O)[C@H](Cc1c[nH]cn1)NC(=O)[C@H](CCCCN)NC(=O)[C@H](Cc1ccc(O)cc1)NC(=O)[C@@H](NC(=O)[C@H](CCCN=C(N)N)NC(=O)CNC)C(C)C)C(=O)O (H-[Sar]RVYKHPI-OH) |  | 50 |  | BP (Rattus norvegicus [4]): 10 mmHg; pA2 [5]: 8.7
CC[C@H](C)[C@H](NC(=O)[C@@H]1CCCN1C(=O)[C@H](Cc1c[nH]cn1)NC(=O)[C@@H]1CCCN1C(=O)[C@H](Cc1ccc(O)cc1)NC(=O)[C@@H](NC(=O)[C@H](CCCN=C(N)N)NC(=O)CNC)C(C)C)C(=O)O (H-[Sar]RVYPHPI-OH) |  |  |  | pA2 (Oryctolagus cuniculus [6]): 8.7; BP (Rattus norvegicus [4]): 7 mmHg
CC[C@H](C)[C@H](NC(=O)[C@@H]1CCCN1C(=O)[C@H](Cc1c[nH]cn1)NC(=O)[C@H](CCCN=C(N)N)NC(=O)[C@H](Cc1ccc(O)cc1)NC(=O)[C@@H](NC(=O)[C@H](CCCN=C(N)N)NC(=O)CNC)C(C)C)C(=O)O (H-[Sar]RVYRHPI-OH) | 10 | 15 |  | pA2 (Oryctolagus cuniculus [3]): 9
CCCC[C@H](NC(=O)[C@H](Cc1ccc(O)cc1)NC(=O)[C@@H](NC(=O)[C@H](CCCN=C(N)N)NC(=O)CNC)C(C)C)C(=O)N[C@@H](Cc1c[nH]cn1)C(=O)N1CCC[C@H]1C(=O)N[C@H](C(=O)O)[C@@H](C)CC (H-[Sar]RVY[Nle]HPI-OH) |  | 20 |  | BP (Rattus norvegicus [4]): 20 mmHg; pA2 [5]: 8.85
CNCC(=O)N[C@@H](CCCN=C(N)N)C(=O)N[C@H](C(=O)N[C@@H](Cc1ccc(O)cc1)C(=O)N[C@H](C(=O)N[C@@H](Cc1c[nH]cn1)C(=O)N1CCC[C@H]1C(=O)N[C@@H](Cc1ccccc1)C(=O)O)C(C)(C)SC)C(C)C (H-[Sar]RVY[Pen](Me)HPF-OH) | 60 |  |  | 
CC[C@H](C)[C@H](NC(=O)[C@@H]1CCCN1C(=O)[C@H](Cc1c[nH]cn1)NC(=O)[C@@H](NC(=O)[C@H](Cc1ccc(O)cc1)NC(=O)[C@@H](NC(=O)[C@H](CCCN=C(N)N)NC(=O)CNC)C(C)C)C(C)(C)SC)C(=O)O (H-[Sar]RVY[Pen](Me)HPI-OH) |  | 20 |  | BP (Rattus norvegicus [4]): 12.5 mmHg; pA2 [5]: 9
CC[C@H](C)[C@H](NC(=O)[C@@H]1CCCN1C(=O)[C@H](Cc1c[nH]cn1)NC(=O)[C@H]1N(C(=O)[C@H](Cc2ccc(O)cc2)NC(=O)[C@@H](NC(=O)[C@H](CCCN=C(N)N)NC(=O)CNC)C(C)C)CSC1(C)C)C(=O)O (H-[Sar]RVY[Thz(5,5-Me2)]HPI-OH) |  | 25 |  | BP (Rattus norvegicus [4]): 11.4 mmHg; pA2 [5]: 9
CC[C@H](C)[C@H](NC(=O)[C@@H]1CCCN1C(=O)[C@H](Cc1c[nH]cn1)NC(=O)[C@@H](NC(=O)[C@H](Cc1ccc(O)cc1)NC(=O)[C@@H](NC(=O)[C@H](CCCN=C(N)N)NC(=O)CNC)C(C)C)C(C)c1ccccc1)C(=O)O (stereo not given in full) (H-[Sar]RVY[X1]HPI-OH) | 10 | 7.5 |  | pA2 (Oryctolagus cuniculus [3]): 9.3
CNCC(=O)N[C@@H](CCCN=C(N)N)C(=O)N[C@H](C(=O)N[C@@H](Cc1ccc(O)cc1)C(=O)N1CSC(C)(C)[C@@H]1C(=O)N[C@@H](Cc1c[nH]cn1)C(=O)N1CCC[C@H]1C(=O)N[C@@H](Cc1ccccc1)C(=O)O)C(C)C (H-[Sar]RVY[dThz(5,5-Me2)]HPF-OH) | 100 |  |  | 
CC[C@H](C)[C@H](NC(=O)[C@@H]1CCCN1C(=O)[C@H](Cc1c[nH]cn1)NC(=O)[C@H](CCc1ccccc1)NC(=O)[C@H](Cc1ccc(O)cc1)NC(=O)[C@@H](NC(=O)[C@H](CCCN=C(N)N)NC(=O)CNC)C(C)C)C(=O)O (H-[Sar]RVY[hPhe]HPI-OH) | 10 | 20 |  | pA2 (Oryctolagus cuniculus [3]): 7.75
H-NRVYAHPF-OH |  |  | 3 | 
H-NRVYLHPF-OH |  |  | 25 | 
H-NRVYPHPF-OH |  |  |  | Activity (Rattus norvegicus [11]): 10%
H-NRVYRHPF-OH |  |  | 0 | 
H-NRVYVHPF-OH [ANGIOTENSIN AMIDE] |  |  |  | Activity (Rattus norvegicus [11]): 100%
H-NRVYYHPF-OH |  |  | 0 | 
